These results are taken from patent US20260258084A1, “New Peptides as Selective IL-23 Receptor Antagonists” (Sanofi, priority 2022, published 2026).

The test system of one data set is Pancreatin. Put plainly: Protease stability in simulated intestinal fluid (Pancreatin-SIF, FaSSIF). The format is in vitro ADME. The settings on record: 1 μM peptide, 37° C.; for remaining at 1 h, 1 µM: 60 min, read-out: FaSSIF 60 (min), remaining percent of peptide; for remaining at 2 h, 1 µM: 120 min, read-out: FaSSIF 120 (min), remaining percent of peptide; for remaining at 4 h, 1 µM: 240 min, read-out: FaSSIF 240 (min), remaining percent of peptide. In outline: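 Peptide (1 μM final) was incubated at 37° C in simulated intestinal fluid containing pancreatin (1 mg per 10 mL SIF concentrate). Samples were quenched with ethanol/0.1% HCOOH at 0, 60, 120 and 240 min and analysed by LC-MS/MS. Percent remaining is the peak area relative to time 0 (100%).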

Another data set concerns T1, Pepsin.
T1 construct: purchased Merck Millipore
Put plainly: Protease stability in simulated gastric fluid (Pepsin-SGF, FaSSGF). Format: in vitro ADME. The settings on record: simulated gastric fluid with pepsin (Pepsin-SGF), 60 min, 1 μM peptide, 37° C., read-out: FaSSGF 60 (min), remaining percent of peptide. The gist of the method: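 Peptides at 1 μM final in pepsin-containing SGF at 37° C, sampled at 0, 60, 120 and 240 min, quenched with ethanol (0.1% HCOOH). Analysed by LCMS/MS; percent remaining from peak area relative to time 0 (set to 100%).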

In data set [1] the test system is IL-23 induced STAT3 signaling in HEK-Blue™ IL-23 cells. Put plainly: IL-23 induced STAT3 signaling in HEK-Blue IL-23 cells (SEAP reporter). The settings on record: human IL23 0.25 ng/ml, read-out: pSTAT3. The format is cell-based. In outline:
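HEK-Blue IL-23 cells (10,000/well) pre-incubated 60 min at 37 °C with serially diluted peptides, then stimulated overnight with human IL-23 (0.25 ng/ml final). STAT3-driven SEAP in supernatant detected with QUANTI-Blue after 45 min at RT (OD 620-655 nm); dose-response curves fitted.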

For data set [2], the target named is T2, human interleukin-23 receptor (recombinant human IL-23R-Fc chimera) (Homo sapiens, UniProt Q5VWK5).
T2 construct: Fc (IgG Fc fusion)
Put plainly: Human ELISA IL23/IL23R (assay for specific human IL23R antagonists). The format is binding. The settings on record: Table 10; read-out: Human ELISA IL23/IL23R IC50. In outline:
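Plates coated overnight at 4 °C with human IL23 ([…]), blocked, then serially diluted peptides added with recombinant human IL-23R-Fc (0.1 μg/ml final) for 60 min at room temperature. Bound receptor detected with anti-human IgG1-HRP and fluorogenic peroxidase substrate.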

Starred links: 1 amine or outer side, 2 acyl side, 3 side chain; linkers in the order of their positions; H or OH if unused. Positions of bridges follow the written chain, without caps; N, C: chain ends. Non-standard residues stand in square brackets, D forms with d. Residues, ends and D or L forms follow the SMILES beside them. *: point of attachment. X6 = O=C(CCC(=O)[*:3])N[C@@H](CS[*:2])C(=O)[*:1]; Trp(7-Me) = Cc1cccc2c(C[C@H](N)C(=O)O)c[nH]c12; X1 = O=C(CCCCN[*:3])N[C@@H](CS[*:2])C(=O)[*:1]; αMeLys(Me2) = CN(C)CCCC[C@](C)(N)C(=O)O; 2Nal = N[C@@H](Cc1ccc2ccccc2c1)C(=O)O; 3Pal = N[C@@H](Cc1cccnc1)C(=O)O; Suc = O=C(CCC(=O)[*:2])[*:1]; Thp = NC1(C(=O)O)CCOCC1; Me2NCH2CH2 = CN(C)CC*; Aib = CC(C)(N)C(=O)O; Ava = NCCCCC(=O)O; Sar = CNCC(=O)O

As to `C[C@@H](O)[C@@H]1NC(=O)[C@H](CC(N)=O)NC(=O)[C@@H]2CSSC[C@H](NC(=O)[C@H](CCC(N)=O)NC(=O)[C@H](Cc3c[nH]c4ccccc34)NC1=O)C(=O)N[C@@H](Cc1ccc(OCCN(C)C)cc1)C(=O)N[C@@H](Cc1ccc3ccccc3c1)C(=O)NC1(CCOCC1)C(=O)N[C@H](C(=O)N[C@@H](CC(N)=O)C(=O)N[C@@H](CC(N)=O)C(N)=O)CCC(=O)NCCCCC(=O)N2` [compound 26] ([Ava]CNTWQCY(Me2NCH2CH2)[2Nal][Thp]ENN-NH2; disulfide 2-7; lactam N-11), in the data set on Pancreatin, the share remaining at 1 h, 1 µM is 95%; the fraction remaining at 2 h, 1 µM is 95%; the share remaining at 4 h, 1 µM was 94%. Further, the amount remaining at 1 h, 1 µM in the data set with Pepsin was 95%. In data set [1], the IC50 worked out at 3.37 nM. Besides, in data set [2], the IC50 came out at 0.29 nM.
Take `CC(=O)N[C@H]1CCCCNC(=O)[C@@H]2CSSC[C@H](NC(=O)[C@H](CCC(N)=O)NC(=O)[C@H](Cc3c[nH]c4ccccc34)NC1=O)C(=O)N[C@@H](Cc1ccc(OCCN(C)C)cc1)C(=O)N[C@@H](Cc1ccc3ccccc3c1)C(=O)NC(C)(C)C(=O)N[C@H](C(=O)N[C@@H](CC(N)=O)C(=O)NCC(N)=O)CCC(=O)NCCCCC(=O)N2` [compound 29] (Ac-KWQCY(Me2NCH2CH2)[2Nal][Aib]ENG-NH2; linker 1-4-8 via X1): in the data set on Pancreatin, the share remaining at 1 h, 1 µM was 73%; the share remaining at 2 h, 1 µM is 58%; the amount remaining at 4 h, 1 µM is 47%. In the data set on Pepsin, the share remaining at 1 h, 1 µM was 70%. Further, the IC50 in data set [1] was found to be 8.16 nM. In addition, the IC50 in data set [2] turned out to be 0.45 nM.
Turning to `CC(=O)NCCCC[C@@H]1NC(=O)[C@H](Cc2c[nH]c3c(C)cccc23)NC(=O)[C@@H](NC(C)=O)CCCCNC(=O)[C@@H]2CSSC[C@H](NC1=O)C(=O)N[C@@H](Cc1ccc(OCCN(C)C)cc1)C(=O)N[C@@H](Cc1ccc3ccccc3c1)C(=O)NC(C)(C)C(=O)N[C@H](C(=O)N[C@@H](CC(N)=O)C(=O)N[C@@H](Cc1cccnc1)C(=O)N(C)CC(N)=O)CCCCNC(=O)CCC(=O)N2` [compound 104] (Ac-K[Trp(7-Me)]K(Ac)CY(Me2NCH2CH2)[2Nal][Aib]KN[3Pal][Sar]-NH2; linker 1-4-8 via X6), in the data set on Pancreatin, the fraction remaining at 1 h, 1 µM is 80%; the amount remaining at 2 h, 1 µM was 80%; the amount remaining at 4 h, 1 µM is 76%. For the same compound, the amount remaining at 1 h, 1 µM with Pepsin is 100%. The IC50 in data set [1] was 0.1 nM. Besides, the IC50 in data set [2] was 0.64 nM.
As for `Cc1cccc2c(C[C@@H]3NC(=O)[C@H]([C@@H](C)O)NC(=O)[C@H](CC(N)=O)NC(=O)[C@@H]4CSSC[C@H](NC(=O)[C@H](CC(C)C)NC3=O)C(=O)N[C@@H](Cc3ccc(OCCN(C)C)cc3)C(=O)N[C@@H](Cc3ccc5ccccc5c3)C(=O)N[C@@](C)(CCCCN(C)C)C(=O)N[C@H](C(=O)N[C@@H](C)C(=O)N[C@@H](Cc3cccnc3)C(=O)N(C)CC(N)=O)CCCCNC(=O)CCC(=O)N4)c[nH]c12` [compound 155] (CNT[Trp(7-Me)]LCY(Me2NCH2CH2)[2Nal][αMeLys(Me2)]KA[3Pal][Sar]-NH2; disulfide 1-6; linker N-10 via Suc), in the data set on Pancreatin, the amount remaining at 1 h, 1 µM was 98%; the fraction remaining at 2 h, 1 µM is 98%; the amount remaining at 4 h, 1 µM is 98%. In addition, the amount remaining at 1 h, 1 µM in the data set with Pepsin is 98%. For the same compound, the IC50 in data set [1] came out at 0.1 nM. The IC50 in data set [2] was 0.7 nM.
Turning to `C[C@@H](O)[C@@H]1NC(=O)[C@H](CC(N)=O)NC(=O)[C@@H]2CSSC[C@H](NC(=O)[C@H](CCC(N)=O)NC(=O)[C@H](Cc3c[nH]c4ccccc34)NC1=O)C(=O)N[C@@H](Cc1ccc(OCCN(C)C)cc1)C(=O)N[C@@H](Cc1ccc3ccccc3c1)C(=O)NC(C)(C)C(=O)N[C@H](C(=O)N[C@@H](CC(N)=O)C(=O)N[C@@H](CC(N)=O)C(N)=O)CCCCN(C)C(=O)CCC(=O)N2` [compound 25], in the data set on Pancreatin, the amount remaining at 1 h, 1 µM was 71%; the amount remaining at 2 h, 1 µM was 52%; the amount remaining at 4 h, 1 µM is 45%. The amount remaining at 1 h, 1 µM in the data set on Pepsin is 74%. In addition, the IC50 in data set [1] is 39.2 nM. Moreover, the IC50 in data set [2] came out at 0.59 nM.
